These results are taken from patent publication US20230159453A1 (COCRYSTAL PHARMA, INC., priority 2020, published 2023).

As a reminder, the IC50 is the concentration needed to halve the response being measured.

The assay concerns the target SARS2 protease (Severe acute respiratory syndrome coronavirus 2, UniProt P0DTD1). As to the kind of experiment: SARS-CoV-2 protease inhibition assay (SARS2 FRET protease assay). Particulars: SARS-CoV-2 protease 25 nM, FRET, peptide substrate 1.3 μM, 30 minutes at 30° C., compounds 20 μM to 1.0 nM; read-out: IC50. The format is biochemical.

As for `CCOP(=O)(OCC)C(O)C(CC1CC2(CCN(C(C)=O)CC2)NC1=O)NC(=O)C(CC(C)C)NC(=O)OCc1cccc(Cl)c1` (stereo in doubt) [Compound C69, 3-Chlorobenzyl ((2R)-1-((3-(8-acetyl-2-oxo-1,8-diazaspiro[4.5]decan-3-yl)-1-(diethoxyphosphoryl)-1-hydroxypropan-2-yl)amino)-4-methyl-1-oxopentan-2-yl)carbamate], the concentration for half-maximal inhibition (IC50) stood at 26.8 µM.
Consider `CCOP(=O)(OCC)C(O)C(CC1CC2(CCCCC2)NC1=O)NC(=O)C(CC(C)C)NC(=O)OCc1cccc(Cl)c1` (stereo in doubt) [Compound C85, 3-Chlorobenzyl ((2R)-1-((1-(diethoxyphosphoryl)-1-hydroxy-3-(2-oxo-1-azaspiro[4.5]decan-3-yl)propan-2-yl)amino)-4-methyl-1-oxopentan-2-yl)carbamate], for which the IC50 turned out to be 17.8 µM.
Consider `CC(C)C[C@H](NC(=O)OC1CCCC1Cc1ccccc1)C(=O)NC(C[C@@H]1CCNC1=O)C(=O)C(=O)NC1CC1` (stereo in doubt) [Compound C89, 2-Benzylcyclopentyl ((S)-1-(((R)-4-(cyclopropylamino)-3,4-dioxo-1-((S)-2-oxopyrrolidin-3-yl)butan-2-yl)amino)-4-methyl-1-oxopentan-2-yl)carbamate], for which the IC50 was found to be 0.3 µM.
For `CCCC1CCC(OC(=O)NC(CC(C)C)C(=O)NC(CC2CC3(CCN(C(C)=O)CC3)NC2=O)C(O)P(=O)(OCC)OCC)CC1` (stereo in doubt) [Compound C91, 4-Propylcyclohexyl ((2R)-1-((3-(8-acetyl-2-oxo-1,8-diazaspiro[4.5]decan-3-yl)-1-(diethoxyphosphoryl)-1-hydroxypropan-2-yl)amino)-4-methyl-1-oxopentan-2-yl)carbamate], the IC50 was > 20 µM.
With `CC(=O)N1CCC2(CC1)CC(CC(NC(=O)C(Cc1ccccc1)NC(=O)c1cnc3ccccc3n1)C(=O)C(N)=O)C(=O)N2` (stereo in doubt) [Compound C130, N-((2S)-1-((1-(8-acetyl-2-oxo-1,8-diazaspiro[4.5]decan-3-yl)-4-amino-3,4-dioxobutan-2-yl)amino)-1-oxo-3-phenylpropan-2-yl)quinoxaline-2-carboxamide] the figure was > 20 µM; with `CCOP(=O)(OCC)C(O)[C@H](CCC(=O)N1CCN(C(=O)OC(C)(C)C)C(c2ccccc2)C1)NC(=O)[C@H](CC1CCCCC1)NC(=O)OCc1cccc(Cl)c1` (stereo partly drawn) [Compound C1, tert-butyl 4-((4S)-4-((S)-2-((((3-chlorobenzyl)oxy)carbonyl)amino)-3-cyclohexylpropanamido)-5-(diethoxyphosphoryl)-5-hydroxypentanoyl)-2-phenylpiperazine-1-carboxylate], > 200 µM; with `CCOP(=O)(OCC)C(O)[C@H](CCC(=O)N(C)C)NC(=O)C(CC(C)(C)C)NC(=O)OCc1cccc(Cl)c1` (stereo partly drawn) [Compound C2, 3-Chlorobenzyl (1-(((2S)-1-(diethoxyphosphoryl)-5-(dimethylamino)-1-hydroxy-5-oxopentan-2-yl)amino)-4,4-dimethyl-1-oxopentan-2-yl)carbamate], 71 µM.
For `CCOP(=O)(OCC)C(O)[C@H](CCC(=O)N1CCNCc2ccccc21)NC(=O)[C@H](CC1CCCCC1)NC(=O)OCc1cccc(Cl)c1` (stereo partly drawn) [Compound C3] the value was > 200 µM; for `CC1C[C@H](NC(=O)[C@H](CC2CCCCC2)NC(=O)OCc2cccc(Cl)c2)C(O)N(CCc2ccccc2)C1=O` (stereo partly drawn) [Compound C4], > 200 µM.
Consider `CCOP(=O)(OCC)C(O)[C@H](CCC(=O)N(C)C1(Cc2ccccc2)CC1)NC(=O)[C@H](CC1CCCCC1)NC(=O)OCc1cccc(Cl)c1` (stereo partly drawn) [Compound C5, 3-Chlorobenzyl ((2S)-1-(((2S)-5-((1-benzylcyclopropyl)(methyl)amino)-1-(diethoxyphosphoryl)-1-hydroxy-5-oxopentan-2-yl)amino)-3-cyclohexyl-1-oxopropan-2-yl)carbamate], for which the IC50 is > 200 µM.
As for `CCCCCOC(=O)N[C@@H](CC1CCCCC1)C(=O)N[C@@H](CCC(=O)N1CCOc2ccccc2C1)C(O)P(=O)(OCC)OCC` (stereo partly drawn) [Compound C6, Pentyl ((2S)-3-cyclohexyl-1-(((2S)-1-(diethoxyphosphoryl)-5-(2,3-dihydrobenzo[f][1,4]oxazepin-4(5H)-yl)-1-hydroxy-5-oxopentan-2-yl)amino)-1-oxopropan-2-yl)carbamate], the IC50 was > 200 µM.
As to `CCCCCCOC(=O)N[C@@H](CC1CCCCC1)C(=O)N[C@@H](CCC(=O)N1CCOc2ccccc2C1)C(O)P(=O)(OCC)OCC` (stereo partly drawn) [Compound C7, Hexyl ((2S)-3-cyclohexyl-1-(((2S)-1-(diethoxyphosphoryl)-5-(2,3-dihydrobenzo[f][1,4]oxazepin-4(5H)-yl)-1-hydroxy-5-oxopentan-2-yl)amino)-1-oxopropan-2-yl)carbamate], the concentration for half-maximal inhibition (IC50) was > 200 µM.
Take `CCOP(=O)(OCC)C(O)[C@H](CC1CCN(CCc2ccccc2)C1=O)NC(=O)[C@H](CC1CCCCC1)NC(=O)OCc1cccc(Cl)c1` (stereo partly drawn) [Compound C8, 3-Chlorobenzyl ((2S)-3-cyclohexyl-1-((1-(diethoxyphosphaneyl)-1-hydroxy-3-(2-oxo-1-phenethylpyrrolidin-3-yl)propan-2-yl)amino)-1-oxopropan-2-yl) carbamate]: the IC50 is > 200 µM.
For `CCOP(=O)(OCC)C(O)[C@H](CCC(=O)N1CCOc2ccc(Cl)cc2C1)NC(=O)[C@H](CC1CCCCC1)NC(=O)OCc1cccc(Cl)c1` (stereo partly drawn) [Compound C9, 3-Chlorobenzyl ((2S)-1-(((2S)-5-(7-chloro-2,3-dihydrobenzo[f][1,4]oxazepin-4(5H)-yl)-1-(diethoxyphosphoryl)-1-hydroxy-5-oxopentan-2-yl)amino)-3-cyclohexyl-1-oxopropan-2-yl)carbamate], the half-maximal inhibitory concentration (IC50) was > 200 µM.
With `CN(CCc1ccccc1)C(=O)CC[C@@H](C=O)NC(=O)[C@H](CC1CCCCC1)NC(=O)OC1(c2cccc(Cl)c2)CC1` [Compound C10, 1-(3-Chlorophenyl) cyclopropyl ((S)-3-cyclohexyl-1-(((S)-5-(methyl (phenethyl)amino)-1,5-dioxopentan-2-yl)amino)-1-oxopropan-2-yl) carbamate], the IC50 was > 200 µM.
For `CCOP(=O)(OCC)C(O)[C@H](CC(C)C(=O)N1CCOc2ccccc2C1)NC(=O)[C@H](CC1CCCCC1)NC(=O)OCc1cccc(Cl)c1` (stereo partly drawn) [Compound C11, 3-chlorobenzyl ((2S)-3-cyclohexyl-1-(((2S)-1-(diethoxyphosphoryl)-5-(2,3-dihydrobenzo[f][1,4]oxazepin-4(5H)-yl)-1-hydroxy-4-methyl-5-oxopentan-2-yl)amino)-1-oxopropan-2-yl)carbamate] the value was > 200 µM; for `CCOP(=O)(OCC)C(O)[C@H](CCC(=O)N1CCNC(c2ccccc2)C1)NC(=O)[C@H](CC1CCCCC1)NC(=O)OCc1cccc(Cl)c1` (stereo partly drawn) [Compound C12, 3-Chlorobenzyl ((2S)-3-cyclohexyl-1-(((2S)-1-(diethoxyphosphoryl)-1-hydroxy-5-oxo-5-(3-phenylpiperazin-1-yl)pentan-2-yl)amino)-1-oxopropan-2-yl)carbamate], > 200 µM.
In the case of `CCOP(=O)(OCC)C(O)[C@H](CCC(=O)N1CCOc2ccccc2C1)NC(=O)[C@H](CC1CCCCC1)NC(=O)OC1CCN(C(=O)OC(C)(C)C)CC1` (stereo partly drawn) [Compound C13, Tert-butyl 4-((((2S)-3-cyclohexyl-1-(((2S)-1-(diethoxyphosphoryl)-5-(2,3-dihydrobenzo[f][1,4]oxazepin-4(5H)-yl)-1-hydroxy-5-oxopentan-2-yl)amino)-1-oxopropan-2-yl)carbamoyl)oxy)piperidine-1-carboxylate], the IC50 is > 200 µM.
